The values that follow come from patent US7968516B2, “Treatment of multiple sclerosis and other autoimmune diseases by use of calpin inhibitors” (ProTor Pharma Corporation, priority 2004, dated 2011).

Where a SMILES comes first, the peptide text is derived from it. [ ]: non-standard residue; d: D form. Cya = N[CH](CS(=O)(=O)O)C(=O)O Where only a bound is given, the exact number is not on record here.

The test system of series [1] is amyloid precursor protein (APP). Briefly: Experiment 4: accumulation of amyloid precursor protein in axons. The class given is in vivo, mice. As to conditions: spinal cord, day 30, anti-APP antibody. An excerpt:
Spinal cord tissue taken from mice at day 30 was stained with a fluorescently-labeled anti-APP antibody.

Series [2] has as its system chinchillas exposed to 105 decibel SPL noise. Briefly: Experiment 6: acoustic trauma, compound action potential (CAP) threshold shift. Type of series: in vivo. As to conditions: 7 mg/kg/day i.p. for seven days; about 4 weeks after noise exposure. The protocol:
(§1) Twelve chinchillas were divided into treatment and control groups (six animals each). The treatment groups received 7 mg/kg/day CLA i.p., for seven days. The control groups received an identical volume of PBS vehicle. Starting on day 0, all of the animals were exposed to a 105 decibel sound pressure level (SPL) noise with a frequency band centered on 4 kilohertz (kHz). The noise exposure lasted for 48 hours, ending two days after the beginning of the dose. Approximately 4 weeks after the noise exposure and dosing, the animals were anesthetized, tracheotimized, and placed upon a heating pad (37 degrees C.). A silver-ball electrode was attached to the round window of the left and right ears to record the compound action potential (CAP). CAP input functions were recorded at 0.5, 1, 2, 4, 8, 16 kHz tone burst levels generated by a digital-to-analog converter attached to a computer. The CAP threshold shift is the change in sound level required to generate an action potential at the electrode subsequent to noise exposure, and increases in the threshold shift reflect increased hearing loss. […] After the CAP threshold shifts were measured, the animals were decapitated, and the cochleae were removed. The hair cells from 11 cochleae were evaluated histologically. […] The numbers of outer hair cells (#OHC) were counted as a function of the distance from the apex of the cochlea. […]

Series [3] has as its system spinal cord axons of EAE mice. Briefly: Experiment 4: axonal integrity by LFB staining. The class given is in vivo. As to conditions: day 30 post-immunization. An excerpt:
Evaluation of axonal integrity using LFB staining: Spinal cord tissue was taken from mice at day 30 post-immunization, approximately 13 days into the chronic phase of EAE. Myelin is stained a blue color by LFB, and the appearance of a normal myelin-coated axon, taken from spinal cord tissue, is shown longitudinally in FIG. 8A.

For series [4], the system named is MOG aa35-55 induced EAE in C57BL/6J mice. Briefly: Experiment 3: EAE clinical scores, CLA twice daily after disease process started. The class given is in vivo. On the procedure: (§2) Clinical evaluation: Mice were evaluated daily for clinical signs of disease for up to 19 days after inoculation. Clinical severity was assessed on a scale of 0-6 as follows: • […] abnormality • 1 ? mild hind limb weakness (some difficulty righting themselves when turned on their backs), sometimes associated with a weak or floppy tail. • 2 ? moderate hind limb weakness associated with a floppy tail. • 3 ? paralysis of hind limbs, sometimes more marked on one side, but no forelimb weakness. • 4 ? hind leg paralysis accompanied by forelimb weakness. • 5 ? quadriplegia; paralysis of both hind limbs and forelimbs. • 6 ? moribund or death.
To induce EAE, mice were each inoculated once with MOG aa35-55 in Complete Freund's Adjuvant (CFA) and Pertussis toxin as previously described. Thirty 7 to 8-week-old female C57BL/6J mice (Jackson Laboratories, Bar Harbor, Mass.) were used in this experiment. […] Controls included two groups of 4 mice for CLA only and CFA/PT only and 4 were left as normal controls. CLA was dissolved in PBS and each mouse in the treatment group was injected i.p. with 200 μl of PBS containing 0.5 mg of CLA every 12 hours until the end of the experiment on day 25 pi. Mice were evaluated daily for clinical signs and symptoms of EAE and graded on a 0-6 scale for up to 25 days after inoculation as detailed above. Scores of asymptomatic mice (score=0) were included in the calculation of the daily mean clinical score for each group.

A short description of series [5]: Experiment 7: plasma and retina concentrations after oral CLA-acetal. The class given is in vivo, Sprague-Dawley rats. To be noted: after 10 mg/kg oral CLA-acetal. The protocol:
Male Sprague-Dawley rats (n=5 per time point, weight 200-250 g) were administer 10 mg/kg CLA-acetal by oral gavage, formulated as a 0.6% solution in phosphate-buffered saline. At 0.1, 0.25, 0.5, 1, 2, 4, 8, 12 and 24 hours, the rats were anesthetized, blood samples were collected, and the retinas were isolated. The plasma samples (200 μL) were treated with 1 mL methanol and centrifuged to remove protein. The supernatants from centrifugation were evaporated, and the residue was taken up in 0.02% aqueous ammonium heptafluorobutyrate (1 mL). The retina samples were homogenized, treated with methanol, centrifuged, and evaporated, and the residue was taken up in 0.02% aqueous ammonium heptafluorobutyrate (1 mL). The plasma and retinal concentrations of CLA and CLA-acetal were determined by liquid chromatography followed by turbo ion spray mass spectrometry on an MDS-Sciex API 4000 triple-quadropole mass spectrometer equipped with a turbo ion spray source. Elution peaks yielding ions corresponding to CLA or CLA-acetal were integrated and used to determine the amount of compound present, by reference to standards. Data reduction was performed using Sciex Analyst version 1.3 software. The peak concentrations (Cmax) were estimated from the concentrations of CLA measured over time.

In series [6] the test system is calpain. Briefly: Experiment 2: immunofluorescent staining for calpain, CD11b and CD45 in spinal cord white matter. The class given is in vivo. To be noted: untreated versus CLA-treated EAE mice. The protocol:
Expression of Calpain in Spinal Cord White Matter: Expression of calpain was determined in spinal cord tissues collected from all experimental and control groups of mice at the end of the experiment. Sections of paraformaldehyde-fixed tissues were stained with antibodies against calpain (FITC conjugated), CD11b (MΦ/microglia marker)(Texas Red-conjugated) and CD45 (leukocyte common antigen) (FITC-conjugated). Referring to FIG. 5, six 10 μm sections were stained with anti-calpain antibody and specific cell marker antibodies (CD45, CD11b). Positive staining for calpain (A, B, C); cells positive for MΦ/microglia marker (CD11b^+) (D, E, F); cells positive for leukocyte common antigen (CD 45^+)(G, H, I). 20× magnification. […] All leukocytes including MΦ, but not microglia, are stained with CD45.

The test system of series [7] is MOG aa35-55 induced EAE in C57BL/6J mice. Briefly: Experiment 1: EAE clinical scores, CLA started at immunization. The class given is in vivo. On the procedure:
To induce EAE, 7-8 week-old female C57BL/6J mice (Jackson Laboratories, Bar Harbor, Md.) were used. Animals were housed according to IACUC regulations in an AAALAC certified facility. Each was injected subcutaneously (s.c.) at two sites on the flanks with 300 μg of myelin oligodendrocyte glycoprotein (MOG) peptide 35-55 in Complete Freund's Adjuvant (CFA) twice with a one week interval between injections, as previously reported (14). Pertussis toxin (PT) was given intraperitoneally on days 0 and 2 post-immunization. CLA was administered to 12 MOG/CFA immunized mice, i.p. at an initial dose of one mg/mouse, starting on the day of the second immunization, followed by 0.5 mg/mouse/day until the end of the experiment, which lasted 19 days. […]
as §2, with “death. […]” for “death.”

For series [8], the system named is spinal cord white matter of EAE mice. Briefly: Experiment 2: Luxol Fast Blue staining, myelin content of spinal cord. Type of series: in vivo. As to conditions: lumbar spinal cord, CLA-treated EAE mice. The protocol: Luxol Fast Blue (LFB) Staining of Spinal Cord Tissues: This staining method, which identifies changes in myelin content of CNS tissues, was performed as previously described (39). Six-10 μm tissue sections were prepared from the lumbar spinal cords of all mice at the end of the experiment. The sections were stained with LFB and counterstained with eosin and cresyl violet to observe changes in the myelin content of the control and treatment groups: A: CFA control; B: MOG/CFA immunized: C; MOG/CFA immunized and CLA-treated. 20× magnification. All myelin containing regions stain blue.

For series [9], the system named is chronic phase of EAE in C57BL/6J mice. The series can be described thus: Experiment 4: chronic phase EAE clinical scores. The class given is in vivo. As to conditions: 30 days. On the procedure:
as §2
The chronic phase of EAE occurs after the clinical score of an affected mouse reaches a plateau at the highest level of the acute phase of the disease. In this chronic phase, more extensive damage occurs to nerve axons, beyond the demyelination observed in the acute phase of the disease (22). EAE was induced in 7-8 week-old female C57BL/6J “mice” by subcutaneous (s.c.) injection in each flank with 100 μl of an emulsion containing […] Freund's Adjuvant supplemented with 500 μg heat inactivated mycobacterium tuberculosis (Sigma St. Louis, Mo.) and 300 μg MOG 35-55. 100 ng of Pertussis toxin (PT) was given intraperitoneally on days 0 and 2 post-immunization. […]

Series [10] has as its system outer hair cells of the cochlea. Briefly: Experiment 6: acoustic trauma, outer hair cell counts. The class given is in vivo, chinchillas. As to conditions: 7 mg/kg/day i.p. for seven days; as a function of distance from apex of cochlea. The protocol: as §1
Series [11] relates to spinal cord white matter of EAE mice. Briefly: Experiment 2: H&E staining, cellular infiltration of spinal cord white matter. The class given is in vivo. As to conditions: CLA-treated EAE mice, tissues at end of experiment. On the procedure:
Hematoxylin and Eosin Staining (H&E): H&E staining was used to show cellular infiltration of spinal cord white matter in mice with acute EAE in comparison with other groups of CFA control and CLA-treated EAE mice, as previously described (14). All staining was performed on tissues that were collected at the end of the experiment. In FIG. 3, 6-10 μm tissue sections were prepared from spinal cords of all mice at the end of the experiment. These tissues were stained with H&E to show inflammatory infiltration (indicated by arrows). A: CFA control; B: MOG/CFA immunized; C: MOG/CFA immunized and CLA-treated. 20× magnification.

The conditions of series [12]: cited from earlier work.
Series [13] concerns cochlear and vestibular hair. To be noted: cited from earlier work.
The subject of series [14] is EAE in rats. To be noted: cited from earlier work.
Where [15] appears, read: CLA 0.5 mg i.p. every 12 hours from day 7 pi.
The mark [16] stands for this setting: CLA twice daily started after signs of stage 2 EAE.

Regarding `CC(C)CC(NC(=O)C(N)CS(=O)(=O)O)C(=O)NC(C=O)CCCNC(=N)N` (stereo not drawn) [CLA, cysteyl-leucyl-argininal] (H-[Cya]-Leu-Arg-aldehyde; configuration not given here), the “accumulation of APP in axons” value in [1] is recorded as “reduces accumulation of APP”. Further, the CAP threshold shift entry in series [2] was “decreased the CAP threshold shift”. Moreover, the “axonal integrity (LFB staining)” value in [3] is given as “marked improvement in axonal integrity”. Besides, in series [4] (setting [15]), the “onset of signs of EAE” value worked out at 15 day pi and the “severity of EAE symptoms” value was “did not develop severe paralysis of the limbs”. Also, in [4] (setting [16]), the “average clinical score (ACS) on day 17 pi” value is recorded as 1.60 and the “clinical score on day 25 pi” value was “less than two”. In addition, the “clinical score on day 25 pi” value in [4] (D7 CLA-treated MOG/CFA mice) is listed as “less than one”. The “average clinical score (ACS) on day 17 pi” value in series [4] (D7 CLA-treated MOG/CFA mice, 0.5 mg i.p. every 12 hours) is 0.5. Besides, the “health of CLA only mice” value in [4] (control mice, CLA only) was “remained healthy”. Also, in [5], the “concentrations in retina compared with plasma” value was “much higher in retina than in plasma”. Further, in [6], the “CD45+ cells (leukocytes)” value is listed as “only marginally higher than CLA-treated EAE mice”, the “expression of calpain in spinal cord white matter” value was “elevated in untreated EAE mice (FIG. 5B) as compared with CLA-treated EAE mice” and the “presence of macrophages/microglia (CD11b+ cells)” value is “higher in untreated EAE mice (FIG. 5E) than CLA-treated EAE”. Further, the “average clinical score (ACS)” value in series [7] (MOG/CFA immunized mice, CLA i.p. one mg/mouse then 0.5 mg/mouse/day, scale 0-6, 19 days) is on record as 1.86. The “effect of CLA only or CFA/CLA on mice” value in series [7] (control mice not immunized with MOG) is “no effect”. Also, the “demyelination (LFB staining)” value in series [8] is “fewer areas of demyelination”. In addition, in series [9] (CLA 2 mg/mouse/day i.p. from day 7 (prior to onset)), the maximum clinical score result is reported as “below 0.5”. Moreover, the maximum clinical score in [9] (CLA 2 mg/mouse/day i.p. from day 12 (after onset)) is on record as less than 1.0. In addition, the “numbers of outer hair cells (#OHC)” value in series [10] is given as “increase in the number of outer hair cells at all distances from the apex”. Besides, in series [11], the “cellular infiltration and perivascular cuffing (H&E)” value was “moderate cellular infiltration and perivascular cuffing”.

On to `CC(=O)N[C@@H](CC(C)C)C(=O)N[C@@H](CC(C)C)C(=O)N[C@H](C=O)CCCNC(=N)N` [leupeptin], for which the cellular permeability result in [12] is “poor cellular permeability”. The “protection from gentamycin ototoxicity” value in [13] is “protects cochlear and vestibular hair from gentamycin oxotoxicity”. For the same molecule, in series [14], the “suppression of EAE” value was “suppressing EAE”.
